The source of these data is patent US20050159345A1 (Boehringer Ingelheim International GmbH, priority 2002, published 2005).

The structures appear in SMILES notation.

In one test the test system is HCV replicon 1a. In words: Cell-based HCV 1a RNA replicon assay. As to conditions: Hepatitis C virus, 72 h; Huh-7-derived replicon cells, 3 day incubation, HCV RNA by RT-PCR. Here is the method:
(§1) These cells were used to establish a sensitive HCV RNA replication cell-based assay for testing candidate test compounds.
(§2) Huh7 cells that stably maintain a subgenomic HCV replicon were established as previously described (Lohman et al. 1999; WO 02/052015). The cells were seeded into a 96 well cell culture cluster at 1×10^4 cells per well in DMEM complemented with 10% FBS, PenStrep (Life Technologies) and […] Geneticin. Cells were incubated in a 5% CO2 incubator at 37° C. until addition of various concentrations of the test compound.
(§3) The test compound was prepared for use in the assay as follows. The test compound in 100% DMSO was added diluted in assay Medium for a final DMSO concentration of 0.5% and the solution was sonicated for 15 min and filtered through a […] Millipore Filter Unit. Serial dilutions of the test compounds were prepared using Assay Medium (containing 0.5% DMSO).
(§4) Cell culture medium was aspirated from the 96-well plate containing the cells and the appropriate dilution of test compound in assay medium was transferred to independent wells of the cell culture plate which was incubated at 37° with 5% CO2.
(§5) Following a 3 day-incubation period, the cells were washed with PBS and total cellular RNA was extracted with the RNeasy Mini Kit® and Qiashredder® from Qiagen. RNA from each well was eluted in 50 μL of H2O. RNA was quantified by optical density at 260 nm on the Cary 1E® UV-Visible spectrophotometer. The HCV RNA replicon copy number was evaluated by real-time RT-PCR with the Abi Prism® 7700 Sequence Detection System. The TAQMAN E® RT-PCR kit provides a system for the detection and analysis of RNA. Direct detection of the reverse transcription polymerase chain reaction (RT-PCR) product with no downstream processing was accomplished by monitoring the increase in fluorescence of a dye-labeled DNA probe. The nucleotide sequence of both primers and probe was located in the 5′ region of the HCV genome. The replicon copy number was then evaluated using a standard curve made with known amounts of replicon copy (supplemented with 50 ng of wild type Huh-7 RNA) assayed in the same reaction mix. The following thermal cycle parameters were used for the RT-PCR reaction on the ABI Prism® 7700 Sequence Detection System. Conditions were optimized for HCV detection. Quantification is based on the threshold cycle, where the amplification plot crosses a defined fluorescence threshold. Comparison of the threshold cycles provides a highly sensitive measure of relative template concentration in different samples. Monitoring during early cycles, when PCR fidelity is at its highest, provides precise data for accurate quantification. The relative template concentration can be converted to real numbers by using the standard curve of HCV with known number of copy.
(§6) The level of inhibition (% inhibition) of each well containing test compound was calculated with the following equation (CN═HCV Replicon copy number): [formula]
(§7) The calculated % inhibition values were then used to determine EC50, slope factor (n) and maximum inhibition (Imax) by the non-linear regression routine NLIN procedure of SAS using the following equation: [formula]
(In general: A replicon is a self-replicating genome or part of one, used to study replication in cells.)

The next test relates to HCV replicon 1b. Nature of the test: Cell-based HCV 1b RNA replicon assay. As to conditions: Hepatitis C virus, 72 h; Huh-7-derived replicon cells, 3 day incubation, HCV RNA by RT-PCR. As for the experimental part:
as §1, §2, §3, §4, §5, §6, §7

Test [1] addresses T1, GBV-B NS3-NS4A heterodimer protein (Hepatitis GB virus B, UniProt Q69422).
T1 construct: The full length GBV-B NS3/NS4A protease gene was isolated from infected tamarin serum; made in house; host or cells: E. coli BL21 DE3 pLysS (pET-29)
In words: In vitro GBV-B NS3 protease assay (HPLC). Type of test: biochemical.
Description: The depsipeptide substrate used to assess inhibition of the protease activity of GBV-B NS3-NS4A heterodimer protein was Ac-DED(EDANS)EE-Abu[C(O)—O] ASK(DABCYL)-NH2 (SEQ ID No. 16) This substrate is cleaved between the aminobutyric (Abu) and the alanine residues and products of the reaction were analyzed by HPLC. The protease activity was assayed in 50 mM Tris-HCl;, pH 8.0, 0.25M sodium citrate, 0.01 % n-dodecyl-β-D-maltoside, 1 mM TCEP. The assay was performed in a Microfluor®2 White U-Bottom Microtiter® plate. 5 μM of the substrate and various concentrations of the test compounds were incubated with 0.4 nM of GBV-B NS3-NS4A heterodimer protein for 2 hours at 23° C. under gentle agitation. […] The reaction was terminated by the addition of a 1M 2-[N-morpholino]ethanesulfonic acid solution at pH 5.8. For quantification, the cleavage products and the substrate were separated by HPLC on a Perkin-Elmer® 3×3CR C8 column. The separation was accomplished by initially eluting at 3.5 mL/min with an aqueous solution containing 0.05% phosphoric acid and 3 mM SDS. A 0 to 45% acetonitrile linear gradient in 0.05% phosphoric acid was then applied for 10 minutes. The absorbance was monitored at 210 nm.

Test [2] has as its target T2, HCV 1b NS3-NS4A heterodimer protein (UniProt P26662).
T2 construct: fused on or other part: 28 extra N-terminal residues with a hexahistidine tag and an rTEV cleavage site
In words: In vitro HCV NS3 protease assay (fluorogenic depsipeptide), genotype 1b. To be noted: read-out: IC50 HCV-1b; HCV 1b NS3-NS4A protease. The class given is biochemical, HCV genotype 1b.
Excerpt: For production of the HCV genotype 1b NS3-NS4A heterodimer protein, a full-length HCV cDNA was cloned by RT-PCR using RNA extracted from the serum of an HCV genotype 1b infected individual (provided by Dr. Bernard Willems, Hôpital St-Luc, Montréal, Canada). […] For HCV genotype 1a, the DNA encoding NS3-NS4A heterodimer protein was PCR-amplified (forward primer: 5′[sequence]3′ (SEQ ID No.3); reverse primer: 5′[sequence]3′ (SEQ ID No.4)) from the HCV genotype la strain H77 (provided by ViroPharma Inc., Exton, Pa., U.S.) and subcloned as described above. The cloning into the pFastBac™ HTa baculovirus expression vector generated a recombinant fusion protein containing an additional N-terminal 28 residues that comprised a hexahistidine tag and a rTEV protease cleavage site. The Bac-to-Bac™ baculovirus expression system (Gibco/BRL) was used to produce the recombinant baculovirus for protein expression.
His-tagged NS3-NS4A heterodimer protease was expressed by infecting Sf21 insect cells (Invitrogen) at a density of 10^6 cells/mL with the recombinant baculovirus at a multiplicity of infection of 0.1-0.2 at 27° C. The infected culture was harvested 48 to 64 h later by centrifugation at 4° C. The cell pellet was homogenized in 50 mM sodium phosphate, pH 7.5, 40% glycerol (w/v), 2 mM β-mercaptoethanol. His-NS3-NS4A heterodimer protease was then extracted from the cell lysate with 1.5% NP-40, 0.5% Triton X-100, 0.5M NaCl, and a DNase treatment. […]

Test [3] has as its target T3, HCV 2a-c NS3-NS4A heterodimer protein (UniProt P26660).
T3 sequence (P26660 1031-1661): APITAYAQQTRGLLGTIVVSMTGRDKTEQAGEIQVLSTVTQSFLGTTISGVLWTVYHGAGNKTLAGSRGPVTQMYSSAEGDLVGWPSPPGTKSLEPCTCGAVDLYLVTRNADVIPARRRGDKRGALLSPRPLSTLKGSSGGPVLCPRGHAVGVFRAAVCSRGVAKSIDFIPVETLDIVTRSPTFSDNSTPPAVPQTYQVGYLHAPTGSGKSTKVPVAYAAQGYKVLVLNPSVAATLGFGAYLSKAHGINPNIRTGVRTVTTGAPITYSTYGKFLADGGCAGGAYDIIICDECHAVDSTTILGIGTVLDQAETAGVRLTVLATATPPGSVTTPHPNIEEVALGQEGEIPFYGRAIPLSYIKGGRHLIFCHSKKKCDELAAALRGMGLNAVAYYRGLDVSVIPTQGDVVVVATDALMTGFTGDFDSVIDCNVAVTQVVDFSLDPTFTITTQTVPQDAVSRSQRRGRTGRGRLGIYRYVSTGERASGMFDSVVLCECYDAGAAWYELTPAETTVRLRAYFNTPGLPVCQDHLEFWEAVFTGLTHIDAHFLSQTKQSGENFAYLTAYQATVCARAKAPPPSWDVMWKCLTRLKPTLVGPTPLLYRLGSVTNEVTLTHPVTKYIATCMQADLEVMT
In words: In vitro HCV NS3 protease assay (fluorogenic depsipeptide), genotype 2a-c. As to conditions: read-out: IC50 HCV-2a-c; HCV 2a-c NS3-NS4A protease. The class given is biochemical, HCV genotype 2a-c. As for the experimental part: The fluorogenic depsipeptide substrate used to assess inhibition of protease activity of the HCV 1a, 1b, 2b, 2a-c and 3a NS3-NS4A heterodimer protein was anthranilyl-DDIVPAbu[C(O)—O]-AMY(3-NO2)TW—OH (SEQ ID No.10). This substrate is cleaved between the aminobutyric (Abu) and the alanine residues. The sequence DDIVPAbu-AMYTW (SEQ ID No.11) is derived from the sequence DDIVPC—SMSYTW (SEQ ID No.12) corresponding to the NS5A/NS5B natural cleavage site. […] The protease activity was assayed in 50 mM Tris-HCl, pH 8.0, 0.25M sodium citrate, 0.01% n-dodecyl-β-D-maltoside, 1 mM TCEP. The assay was performed in a Microfluor®2 White U-Bottom Microtiter® plate. 5 μM of the substrate and various concentrations of the test compound were incubated with 1.5 nM of HCV 1a or 1b NS3-NS4A heterodimer protein for 45 minutes at 23° C. under gentle agitation. […] The reaction was terminated by the addition of a 1M 2-[N-morpholino]ethanesulfonic acid solution at pH 5.8.
The fluorescence was monitored using the BMG POLARstar Galaxy 96-well plate reader with an excitation filter of 320 nm, and an emission filter of 405 nm. The level of inhibition (% inhibition) of each well containing test compound was calculated with the following equation (FU=fluorescence unit): [formula]
The calculated % inhibition values were then used to determine IC50, slope factor (n) and maximum inhibition (Imax) by the non-linear regression routine NLIN procedure of SAS using the following equation: [formula] Inhibition Constant (Ki) Determination and mode of Inhibition

T2 sequence (P26662 1027-1657, one chain of several): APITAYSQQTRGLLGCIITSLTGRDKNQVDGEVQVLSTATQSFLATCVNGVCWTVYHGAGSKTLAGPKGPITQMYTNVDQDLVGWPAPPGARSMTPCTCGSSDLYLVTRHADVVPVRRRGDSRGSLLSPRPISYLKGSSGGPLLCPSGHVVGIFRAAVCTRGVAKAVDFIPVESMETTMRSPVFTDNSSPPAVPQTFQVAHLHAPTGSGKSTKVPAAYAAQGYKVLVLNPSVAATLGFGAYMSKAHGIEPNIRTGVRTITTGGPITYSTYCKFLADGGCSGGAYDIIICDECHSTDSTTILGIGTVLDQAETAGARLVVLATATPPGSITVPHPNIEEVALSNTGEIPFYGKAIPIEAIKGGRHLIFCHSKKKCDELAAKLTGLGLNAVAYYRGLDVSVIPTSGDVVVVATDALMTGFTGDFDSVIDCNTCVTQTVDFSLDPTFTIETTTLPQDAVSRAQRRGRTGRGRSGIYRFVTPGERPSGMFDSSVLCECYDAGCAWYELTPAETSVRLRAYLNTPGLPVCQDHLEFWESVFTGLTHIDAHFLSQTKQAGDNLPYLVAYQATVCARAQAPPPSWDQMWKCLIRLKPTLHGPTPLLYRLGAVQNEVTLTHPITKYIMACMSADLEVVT
T1 sequence (Q69422 1565-1615): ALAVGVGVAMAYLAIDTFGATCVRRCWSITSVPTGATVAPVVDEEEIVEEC
T1 sequence (Q69422 941-1564): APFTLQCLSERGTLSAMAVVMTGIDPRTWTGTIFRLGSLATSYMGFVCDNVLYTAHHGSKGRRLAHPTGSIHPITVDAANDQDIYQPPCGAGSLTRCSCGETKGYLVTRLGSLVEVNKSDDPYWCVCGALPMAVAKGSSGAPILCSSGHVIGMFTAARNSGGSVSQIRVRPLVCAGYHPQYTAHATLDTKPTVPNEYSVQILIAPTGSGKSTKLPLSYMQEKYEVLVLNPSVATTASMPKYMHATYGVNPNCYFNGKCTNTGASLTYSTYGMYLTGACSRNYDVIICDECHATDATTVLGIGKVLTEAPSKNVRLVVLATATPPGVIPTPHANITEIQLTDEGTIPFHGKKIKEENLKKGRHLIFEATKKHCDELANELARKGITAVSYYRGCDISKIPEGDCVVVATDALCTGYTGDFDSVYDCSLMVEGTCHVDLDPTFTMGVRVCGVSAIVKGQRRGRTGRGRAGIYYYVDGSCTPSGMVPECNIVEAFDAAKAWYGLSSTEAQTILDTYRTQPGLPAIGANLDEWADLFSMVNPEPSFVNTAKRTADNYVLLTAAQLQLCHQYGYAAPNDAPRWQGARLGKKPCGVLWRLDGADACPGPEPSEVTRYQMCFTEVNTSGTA

Usually EC50 stands for the concentration that produces a half-maximal response. A lower EC50 goes with a more potent agent. By IC50 is commonly meant the point on the concentration scale where inhibition reaches its midpoint. In the case of `COc1ccc2c(O[C@@H]3C[C@H]4C(=O)N[C@]5(C(=O)O)CC5/C=C\CCCCC[C@H](NC(=O)OC5CCCC5)C(=O)N4C3)cc(-c3csc(NC(C)C)n3)nc2c1` (stereo partly drawn) [IV], the half-maximal effective concentration (EC50) in the test on HCV replicon 1a worked out at 2.1 nM; with HCV replicon 1b, 1 nM. Also, the IC50 turned out to be 16000 nM in test [1], 3.4 nM in test [2] and 200 nM in test [3].

For `COc1ccc2c(O[C@@H]3C[C@H]4C(=O)N[C@]5(C(=O)O)CC5/C=C\CCCCC[C@H](NC(=O)OC(C)(C)C)C(=O)N4C3)cc(-c3csc(NC(C)=O)n3)nc2c1` (stereo partly drawn) [III], the EC50 with HCV replicon 1a was determined as 4.5 nM; in the test with HCV replicon 1b, 4.7 nM. In addition, the IC50 was 31000 nM in test [1], 4.2 nM in test [2] and 490 nM in test [3].

`COc1ccc2c(O[C@@H]3C[C@H]4C(=O)N[C@]5(C(=O)O)CC5/C=C\CCCCC[C@H](NC(=O)OC(C)(C)C)C(=O)N4C3)cc(-c3ccccc3)nc2c1` (stereo partly drawn) [II]: the results for the EC50 in the test with HCV replicon 1a and in the test on HCV replicon 1b were 34 nM and 27 nM, respectively. Moreover, the IC50 in test [1] is 36500 nM; in test [2] it was 8.9 nM; in test [3], 680 nM.
